# Patent publication US8372967B2, “Compounds and methods for modulating expression of GCCR” (Isis Pharmaceuticals, Inc., priority 2006, dated 2013)
# Strand notation (5' to 3'): a small letter for the sugar, then the base; units joined by * are phosphorothioate-linked, units joined directly phosphodiester-linked; [ ] holds rarer units or linkages, { } end groups; capitals alone tell only the bases. e = 2'-O-(2-methoxyethyl) (MOE); [5mC] = 5-methylcytosine; d = 2'-deoxy (DNA)
# Test system: GCGR mRNA
# Assay: GCGR mRNA levels in liver, C57/BL6 mice, single i.p. dose (Tables 35-41)
# Type: in vivo, mouse
# Description: Prior to quantitative PCR analysis, primer-probe sets specific to the target gene being measured were evaluated for their ability to be “multiplexed” with a GAPDH amplification reaction. After isolation the RNA is subjected to sequential reverse transcriptase (RT) reaction and real-time PCR, both of which are performed in the same well. RT and PCR reagents were obtained from Invitrogen Life Technologies (Carlsbad, Calif.). […] The RT reaction was carried out by incubation for 30 minutes at 48° C. Following a 10 minute incubation at 95° C. to activate the PLATIN 9M® Taq, 40 cycles of a two-step PCR protocol were carried out: 95° C. for 15 seconds (denaturation) followed by 60° C. for 1.5 minutes (annealing/extension).
# 170 μL of RiboGreen® working reagent (RiboGreen® reagent diluted 1:350 in 10 mM Tris-HCl, 1 mM EDTA, pH 7.5) was pipetted into a 96-well plate containing 30 μL purified cellular RNA. The plate was read in a CytoFluor® 4000 (PE Applied Biosystems) with excitation at 485 nm and emission at 530 nm.
# Eight-week old male C57/BL6 mice (Jackson Laboratory, Bar Harbor, Me.) were administered a single dose of GCGR oligonucleotide by intraperitoneal injection at a concentration of […]. Each dose group consisted of four animals. Shown in Table 31 are the sequences, motifs and conjugates of the GCGR antisense compounds used in this study. Bolded residues indicate 2′-O-methoxyethyl (2′-MOE) moieties. All compounds comprise phosphorothioate internucleoside linkages throughout and each cytosine is replaced with 5-methylcytosine. ISIS 386626, ISIS 386627 and ISIS 386628 further comprise a C16 conjugate group attached to the 2′-O position of the sugar via a diamide linkage (2′-OCH2C(═O)N(H)(CH2)4N(H)C(═O)—(CH2)15CH3). GCGR antisense compounds target published GCGR sequences, including Genbank® Accession No. BC031885.1 (SEQ ID NO: 7).
# Mice were sacrificed 48 hours following injection to determine serum transaminase levels (Table 32); liver, white adipose tissue (WAT), spleen and kidney weight (Table 33); cholesterol, triglyceride and glucose levels (Table 34); GCGR mRNA levels (Tables 35-41); and full-length and total oligonucleotide concentration in liver and kidney (Table 42). Endpoints were assessed using methods described herein and well known to those of ordinary skill in the art. Data is included from a pre-treatment bleed (Pre-Bleed) and post-treatment bleed (Post-Bleed).
# To determine whether the phenotypic changes shown above correlated with a decrease in GCGR mRNA, treated animals were evaluated for levels of target mRNA in liver by real time PCR according to methods described herein. Tables 35 to 41 show results from direct comparisons of the antisense compounds targeting GCGR nucleic acid for their effect on target expression. Results are expressed as percent of saline control.
substance,measurement,setting,value
148364 (antisense eT*eG*e[5mC]*eA*e[5mC]*dT*dT*dT*dG*dT*dG*dG*dT*dA*d[5mC]*e[5mC]*eA*eA*eG*eG) [compound 148364],GCGR mRNA levels,"6.25 mg/kg, Table 35 comparison ISIS 148364 & ISIS 386626",62% of saline control
same,GCGR mRNA levels,"6.25 mg/kg, Table 36 comparison ISIS 148364 & ISIS 386627",86% of saline control
same,GCGR mRNA levels,"6.25 mg/kg, Table 37 comparison ISIS 148364 & ISIS 386593",86% of saline control
same,GCGR mRNA levels,"6.25 mg/kg, Table 38 comparison ISIS 148364 & ISIS 386628",101% of saline control
same,GCGR mRNA levels,"6.25 mg/kg, Table 39 comparison ISIS 148364 & ISIS 386594",96% of saline control
same,GCGR mRNA levels,"12.5 mg/kg, Table 35 comparison ISIS 148364 & ISIS 386626",87% of saline control
same,GCGR mRNA levels,"12.5 mg/kg, Table 36 comparison ISIS 148364 & ISIS 386627",105% of saline control
same,GCGR mRNA levels,"12.5 mg/kg, Table 37 comparison ISIS 148364 & ISIS 386593",105% of saline control
same,GCGR mRNA levels,"12.5 mg/kg, Table 38 comparison ISIS 148364 & ISIS 386628",98% of saline control
same,GCGR mRNA levels,"12.5 mg/kg, Table 39 comparison ISIS 148364 & ISIS 386594",102% of saline control
same,GCGR mRNA levels,"25 mg/kg, Table 35 comparison ISIS 148364 & ISIS 386626",79% of saline control
same,GCGR mRNA levels,"25 mg/kg, Table 36 comparison ISIS 148364 & ISIS 386627",87% of saline control
same,GCGR mRNA levels,"25 mg/kg, Table 37 comparison ISIS 148364 & ISIS 386593",74% of saline control
same,GCGR mRNA levels,"25 mg/kg, Table 38 comparison ISIS 148364 & ISIS 386628",77% of saline control
same,GCGR mRNA levels,"25 mg/kg, Table 39 comparison ISIS 148364 & ISIS 386594",98% of saline control
same,GCGR mRNA levels,"50 mg/kg, Table 35 comparison ISIS 148364 & ISIS 386626",36% of saline control
same,GCGR mRNA levels,"50 mg/kg, Table 36 comparison ISIS 148364 & ISIS 386627",63% of saline control
same,GCGR mRNA levels,"50 mg/kg, Table 37 comparison ISIS 148364 & ISIS 386593",56% of saline control
same,GCGR mRNA levels,"50 mg/kg, Table 38 comparison ISIS 148364 & ISIS 386628",42% of saline control
same,GCGR mRNA levels,"50 mg/kg, Table 39 comparison ISIS 148364 & ISIS 386594",59% of saline control
